Measurements as given in patent US8901337B2, “Metal complexes having dual histone deacetylase inhibitory and DNA-binding activity” (Royal College of Surgeons in Ireland, priority 2009, dated 2014).

Columns and labels:
[1] = test system: SKBR (breast cancer cells); test: Cellular uptake of Pt (FAAS), SKBR; format: cell-based; details: 72 hours treatment; for Uptake of Pt complexes into SKBR: 10 μM
Method: Cellular uptake of Pt compounds was measured in SKBR, SW480, A549, A2780P and CH1 cells. The cells were seeded in 60 mm tissue culture dishes with 10 mL of their respective medium and after overnight incubation, the cells were treated with the Pt complexes for 72 h at 10 μM concentration. The cell monolayers at the end of the incubation with the Pt complexes were washed (twice) with ice-cold phosphate buffered saline (PBS), trypsinized and harvested into cold (4° C.) PBS. Cell suspensions were centrifuged and the pellets were stored in PBS at −80° C. until assayed. Afterward, the pellets were digested by high pressure microwave mineralization and Pt content was determined by flameless atomic absorption spectrophotometry (FAAS). The results of cellular Pt uptake were corrected for adsorption effects. All experiments were made in triplicate.^17

[2] = test system: DNA in SW480 cells (colon cancer); test: Pt binding to DNA in cultured cells (ICP-MS), SW480; format: cell-based; details: 2 hours of cell treatment
Method: Pt DNA binding of Pt complexes was measured in SW480 cells (colon cancer) and CH1 cells (lymphoma) or alternatively A2780 P and A2780 cisR cells (sensitive and resistant to cisplatin respectively). The cells were seeded in 60 mm tissue culture dishes with 10 ml of their respective medium. After overnight incubation the medium was removed and replaced with 10 ml of the respective medium containing a platinum complex giving a final concentration of 43 or 40 μM depending on the experiment. The cells were incubated with a given Pt complex for either 2 or 4 h depending on the experiment. The cells were trypsinised and centrifuged. The supernantant was removed and the cells washed twice with 1×PBS and centrifuged. The pellet was re-suspended in DNA buffer to which Proteinase K (20 mg/mL) and 10% SDS were added. After a gentle shake and incubation at 45° C. for two hours, RNAse (100 mg/mL) was added and the cells were incubated at 37° C. overnight. The volume of supernatant was noted and an equal volume of phenol was added.
The resulting mixture was shook for 10 min, then centrifuged for 10 min at 10° C. The supernatant was transferred into a new centrifuge tube (15 ml) and the volume was noted. To this was added an equal volume of phenol and chloroform/isoamylalcohol (24:1). The resulting mixture was shook for 10 min, then centrifuged for 10 min at 10° C. (3000 RPM). The supernatant was transferred into a new centrifuge tube (15 mL) and the volume was noted. To this was added an equal volume of chloroform. The resulting mixture was shook for 10 min, then centrifuged for 10 min at 10° C. The supernatant was transferred into a new centrifuge tube (15 mL) and the volume was noted. To this was added a volume that is 1/10 of the supernatant of 3 M sodium acetate (Ph 5.2) and three times the volume of cold 100% isopropanol (from freezer). The solution was shook gently until the DNA is precipitated. […] The absorbance of the DNA by was measured by UV spectrophotometry at 260 nm and 280 nm and the concentration of DNA calculated. Platinum bound to DNA was determined by ICP-MS.

A2780 cisR cells = test: Morphological analysis (methylene blue/eosin and DAPI staining), A2780 cisR; format: cell-based, human; details: IC50 and IC75, 72 hr
Method: Preparations of A2780 P and A2780-cisR cells were exposed to test agents for 72 hr and stained with methylene blue and eosin^19. Drug-treated cells were grown in petri dishes, washed once with PBS, once with PBS:methanol (1:1, v/v), and then fixed in 100% (v/v) methanol for 10 min. Following fixation, cell monolayers were rinsed with anhydrous methanol and stained with methylene blue and eosin for 2 min. Monolayers were then agitated for a further 2 min, destained by rinsing under a gentle stream of water and then finally rinsed with distilled water. Phase contrast microscopy was carried out using a Ceti-phase contrast microscope.
Drug-treated cells were also stained using a DNA-binding agent commonly used to stain nuclei and visualise nuclear morphology and DNA condensation, namely 4,6-diamidino-2-phenylindole (DAPI). Briefly, a monolayer of drug-treated cells was washed in PBS and fixed with 4% (w/v) paraformaldehyde for 30 min at room temperature. These cells were then permeabilized with 0.2% (v/v) Triton X in PBS and incubated with 1 μg/ml of DAPI for 30 min. Cells were again washed three times with PBS and viewed using a fluorescent microscope with 340/380 nm excitation filter at 250× magnification. Apoptotic cells were confirmed by identification of intensely stained, fragmented nuclei and condensed chromatin.

[3] = test system: A2780 P ovarian cancer cells; test: Cell cycle progression, flow cytometry (propidium iodide); format: cell-based, human; details: 72 hr
Method: Both floating and attached cells were collected by centrifugation, washed twice in ice-cold PBS, pH 7.4, harvested by scraping with a rubber policeman, and then collected by centrifugation. The effect of drug treatment on cell cycle progression was determined using flow cytometric analysis according to the method of Nunez (2001).^21 Briefly, cell suspensions were fixed and permeabilised by vigorous addition of nine volumes of ice-cold 70% (v/v) ethanol and stored at −20° C. for a minimum of 24 h, prior to analysis. Cells at a density of approximately 1×10^6 were re-suspended in 800 μl of propidium iodide staining solution (20 μg/ml propidium iodide and 200 μg/ml RNase A in PBS, pH 7.4) and incubated in the dark at room temperature for 30 min. The percentage of cells in the sub-G1, G0/G1, S and G2/M phases of the cell cycle was determined over a range of concentrations and time points, and analysed from at least three independent experiments using Cell Quest™ software (Becton Dickinson).

Row | SMILES | Uptake of Pt complexes into SKBR [1] | uptake by cancer cells compared with cisplatin (in words) ([1]; SKBR, SW480, A549, A2780 P, CH1) | binding of Pt to DNA in cultured cells (in words) ([2]; SW480 and CH1 cells) | cellular morphology and integrity of DNA (A2780 cisR cells) | % G0/G1 ± S.E.M. ([3]; concentration equal to IC50) | % G2/M ± S.E.M. ([3]; concentration equal to IC50) | % S ± S.E.M. ([3]; concentration equal to IC50) | % Sub-G1 ± S.E.M. ([3]; concentration equal to IC50) | % G0/G1 ± S.E.M. ([3]; concentration equal to IC75) | % G2/M ± S.E.M. ([3]; concentration equal to IC75) | % S ± S.E.M. ([3]; concentration equal to IC75) | % Sub-G1 ± S.E.M. ([3]; concentration equal to IC75) | sub-G1 accumulation (in words) ([3]; A2780 P) | DNA-bound Pt in SW480 ([2]; 43 μM of Pt complexes)
1 | [NH2][Pt]1([NH2])[O]C(=O)C(Cc2ccc(NC(=O)CCCCCCC(=O)NO)cc2)C(=O)[O]1 [cis-[Pt(NH3)2(malSAHA−2H)], cis-[Pt(NH3)2(malSAHA−2H)].3H2O] | 6568 ± 312 pmol Pt/2 × 10^6 cell | taken up by cancer cells after 72 hours treatment and to a greater extent than cisplatin | binds DNA in cultured cells after 2 hours of cell treatment |  |  |  |  |  |  |  |  |  |  | 
2 | [NH2][Pt]1([NH2])[O]C(=O)C(Cc2ccc(NS(=O)(=O)c3ccc(/C=C/C(=O)NO)cc3)cc2)C(=O)[O]1 [cis-[Pt(NH3)2(malBel−2H)], cis-[Pt(NH3)2(malBel−2H)].1.5H2O] |  |  |  | considerable thinning of the monolayer, attenuation of cells and the nuclei to be intensively stained and fragmented | 16.16 ± 0.88% | 7.91 ± 0.03% | 7.21 ± 0.11% | 60.86 ± 0.26% | 11.75 ± 0.17% | 8.04 ± 0.72% | 5.59 ± 0.36% | 67.67 ± 0.43% | dose dependent increase in sub-G1 accumulation compared to control cells | 
3 | N.N.[Cl][Pt][Cl] [cisplatin, cis-[Pt^II(NH3)2Cl2], reference compound] | 876.25 ± 70.55 pmol Pt/2 × 10^6 cell |  |  | considerable thinning of the monolayer, attenuation of cells and the nuclei to be intensively stained and fragmented | 18.58 ± 0.58% | 5.44 ± 0.04% | 5.33 ± 0.13% | 64.16 ± 0.74% | 20.88 ± 0.14% | 4.73 ± 0.13% | 5.81 ± 0.30% | 61.81 ± 0.39% |  | 38.5 · 10^−15 moles of Pt/μg of DNA
